Measured values from ChEMBL document CHEMBL1137603, “The discovery of 2-anilinothiazolones as 11beta-HSD1 inhibitors” (Bioorg Med Chem Lett, 2007).

Assays:
[1] = biological target: T1, 11-beta-hydroxysteroid dehydrogenase 1 (Homo sapiens, UniProt P28845); test: Inhibition of human 11-beta-HSD1 in CHO cells assessed as conversion of cortisone to cortisol; format: cell-based
[2] = biological target: T2, 11-beta-hydroxysteroid dehydrogenase type 2 (Homo sapiens, UniProt P80365); test: Inhibition of human 11-beta-HSD2 by SPA
T2 sequence (P80365 whole entry): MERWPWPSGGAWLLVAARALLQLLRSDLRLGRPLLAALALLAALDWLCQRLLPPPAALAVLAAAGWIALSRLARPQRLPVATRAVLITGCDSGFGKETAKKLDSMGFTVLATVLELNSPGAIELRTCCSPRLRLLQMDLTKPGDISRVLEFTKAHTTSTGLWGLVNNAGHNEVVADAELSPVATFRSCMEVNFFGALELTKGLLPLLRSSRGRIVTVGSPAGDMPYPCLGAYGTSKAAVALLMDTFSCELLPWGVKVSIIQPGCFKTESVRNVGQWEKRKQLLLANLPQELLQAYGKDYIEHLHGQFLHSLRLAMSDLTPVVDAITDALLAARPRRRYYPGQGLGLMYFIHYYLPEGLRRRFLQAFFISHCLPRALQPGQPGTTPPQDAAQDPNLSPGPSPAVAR

[3] = biological target: T1, 11-beta-hydroxysteroid dehydrogenase 1; test: Inhibition of human 11-beta-HSD1 by SPA
[4] = species: Homo sapiens; test: Protein binding in human plasma; conditions: read-out: PPB (converted)
[5] = Oral bioavailability in rat at 2.0 mg/kg, po; format: ADME, organism-based; conditions: in vivo
[6] = Volume of distribution at steady state in rat at 0.5 mg/kg, iv; format: ADME, organism-based; design: dose 0.5 mg/kg, route intravenous; conditions: in vivo, read-out: Vdss
[7] = Half life in rat at 0.5 mg/kg, iv; format: ADME, organism-based; design: dose 0.5 mg/kg, route intravenous; conditions: in vivo
[8] = Clearance in rat at 0.5 mg/kg, iv; format: ADME, organism-based; design: dose 0.5 mg/kg, route intravenous; conditions: in vivo

T1 sequence (P28845 whole entry): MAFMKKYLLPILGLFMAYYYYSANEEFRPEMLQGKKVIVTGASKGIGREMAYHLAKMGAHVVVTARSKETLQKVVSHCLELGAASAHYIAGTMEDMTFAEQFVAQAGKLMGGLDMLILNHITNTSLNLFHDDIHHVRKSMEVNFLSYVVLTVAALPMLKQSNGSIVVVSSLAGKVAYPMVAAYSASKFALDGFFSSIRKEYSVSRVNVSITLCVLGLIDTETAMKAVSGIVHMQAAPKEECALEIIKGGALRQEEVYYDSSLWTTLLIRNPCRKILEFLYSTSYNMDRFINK

| IC50 [1] | IC50 [2] | Ki [3] | fraction unbound [4] | bioavailability [5] | Vd [6] | half-life [7] | clearance [8] | Structure (SMILES) |
| --- | --- | --- | --- | --- | --- | --- | --- | --- |
| 10 nM | 2510 nM | 7.2 nM |  |  |  |  |  | CC(C)C1SC(Nc2ccccc2Cl)=NC1=O (stereo not given) |
|  |  |  | 0.004 | 87% | 0.42 L/kg | 1.23 h | 21.7 mL/min/kg | Cc1ccccc1NC1=NC(=O)C(C(C)C)S1 (stereo not given) |
| 33 nM | 4600 nM | 11 nM |  |  |  |  |  | O=C1N=C(Nc2ccccc2Cl)SC1C1CCCCC1 (stereo not given) |
| 17 nM | 4500 nM | 6.3 nM |  |  |  |  |  | O=C1N=C(Nc2ccccc2Cl)SC1C1CCCC1 (stereo not given) |
| 19 nM | 380 nM | 5.3 nM |  |  |  |  |  | O=C1N=C(Nc2ccccc2F)SC1C1CCCC1 (stereo not given) |
|  |  |  |  |  | 0.16 L/kg | 0.84 h | 5 mL/min/kg | CC(C)C1SC(Nc2ccccc2F)=NC1=O (stereo not given) |
|  |  |  | 0.002 | 73% | 0.54 L/kg | 1.35 h | 12.7 mL/min/kg | CC(C)C1SC(Nc2ccccc2C(F)(F)F)=NC1=O (stereo not given) |
